Experimental data reported in patent US20070027130A1, “Tricyclic 6-alkylidene-penem beta-lactamase inhibitors and beta-lactam antibiotic combination: a broad spectrum antibiotic” (priority 2005, published 2007).
In brackets after ≈: the same amount, converted by molar mass. Where two headings read alike, the source gives them in different places.

Assays:
Test in all cases: MIC microbroth dilution
Type in all cases: cell-based
[1] = tested on: E. coli GC 2015 (TEM-10 + SHV-1); settings: Escherichia coli, β-lactamase class A, A (ESBL), MHBII, 35° C. 18 hr, read-out: Minimal Inhibitory Concentration
Procedure, shortened: (§1)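 In vitro activity was measured by NCCLS broth microdilution in MHBII. Incubation ran at 35 C for 18-22 hours under ambient air.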

[2] = tested on: E. coli GC 2844 (none); settings: Escherichia coli, β-lactamase class none, MHBII, 35° C. 18 hr, read-out: Minimal Inhibitory Concentration
Procedure, shortened: as §1

[3] = tested on: K. pn GC 1507 (TEM-9 + SHV-1); settings: Klebsiella pneumoniae, β-lactamase class A, A (ESBL), MHBII, 35° C. 18 hr, read-out: Minimal Inhibitory Concentration
Procedure, shortened: as §1

[4] = tested on: K. pn GC 1963 (TEM-10 + SHV-1 + SHV-ESBL); settings: Klebsiella pneumoniae, β-lactamase class A, MHBII, 35° C. 18 hr, read-out: Minimal Inhibitory Concentration
Procedure, shortened: as §1

[5] = tested on: E. coli GC 2149 (ACT-1; TEM-1 + pl 5.6); settings: Escherichia coli, β-lactamase class A, A (ESBL), C, MHBII, 35° C. 18 hr, read-out: Minimal Inhibitory Concentration
Procedure, shortened: as §1

[6] = tested on: K. pneumoniae GC 7823 Fox 5; settings: Klebsiella pneumoniae, GC7823FOX5, β-lactamase class C, MHBII, 35° C. 18 hr, read-out: Minimal Inhibitory Concentration
Procedure, shortened: as §1

[7] = tested on: E. cloacae PT 1494 Inducible AmpC; settings: Enterobacter cloacae, β-lactamase class C, MHBII, 35° C. 18 hr, read-out: Minimal Inhibitory Concentration
Procedure, shortened: as §1

[8] = tested on: K. pn GC 3104 (MIR-1 + TEM-1); settings: Klebsiella pneumoniae, β-lactamase class A, C, MHBII, 35° C. 18 hr, read-out: Minimal Inhibitory Concentration
Procedure, shortened: as §1

[9] = tested on: A. baumannii GC 7684 AmpC, AmpC; settings: Acinetobacter baumannii, β-lactamase class C, MHBII, 35° C. 18 hr, read-out: Minimal Inhibitory Concentration
Procedure, shortened: as §1

[10] = tested on: K. pn GC 1832 (SHV-4); settings: Klebsiella pneumoniae, β-lactamase class A (ESBL), MHBII, 35° C. 18 hr, read-out: Minimal Inhibitory Concentration
Procedure, shortened: as §1

[11] = tested on: S. maltophilia GC 1712(L1); settings: Stenotrophomonas maltophilia, β-lactamase class B, MHBII, 35° C. 18 hr, read-out: Minimal Inhibitory Concentration
Procedure, shortened: as §1

[12] = tested on: K. pneumoniae GC 7636 TEM-1 KPC-2 SHV-12; settings: Klebsiella pneumoniae, 18 h, read-out: Minimal Inhibitory Concentration
Procedure, shortened: as §1

[13] = tested on: E. coli GC 2804 (imp); settings: Escherichia coli, 18 h, read-out: Minimal Inhibitory Concentration
Procedure, shortened: as §1

[14] = tested on: E. cloacae GC 1477 (AmpC); settings: Enterobacter cloacae, β-lactamase class C, MHBII, 35° C. 18 hr, read-out: Minimal Inhibitory Concentration
Procedure, shortened: as §1

[15] = tested on: E. coli ATCC 25922 (none); settings: Escherichia coli, ATCC25922, β-lactamase class none, MHBII, 35° C. 18 hr, read-out: Minimal Inhibitory Concentration
Procedure, shortened: as §1

[16] = tested on: E. cloacae GC 7052 SHV-5, Amp C inducable; settings: Enterobacter cloacae, β-lactamase class A (ESBL), MHBII, 35° C. 18 hr, read-out: Minimal Inhibitory Concentration
Procedure, shortened: as §1

[17] = tested on: K. pn GC 2391 (pl 5.4; 5.6; 7.6; 8.7 B-lactamases); settings: Klebsiella pneumoniae, β-lactamase class A, A (ESBL), C (presumed), MHBII, 35° C. 18 hr, read-out: Minimal Inhibitory Concentration
Procedure, shortened: as §1

[18] = tested on: E. cloacae GC 4142 (AmpC); settings: Enterobacter cloacae
Procedure, shortened: as §1

[19] = tested on: E. coli GC 6197 (TEM-1 + SHV-7 + CMY-2); settings: Escherichia coli, β-lactamase class A, A (ESBL), C, MHBII, 35° C. 18 hr, read-out: Minimal Inhibitory Concentration
Procedure, shortened: as §1

[20] = tested on: E. coli GC 1807 OXA-7; settings: Escherichia coli, GC1807OXA7, β-lactamase class D, MHBII, 35° C. 18 hr, read-out: Minimal Inhibitory Concentration
Procedure, shortened: as §1

[21] = tested on: K. pneumoniae GC 2826 Act 1 + 3 additional; settings: Klebsiella pneumoniae, β-lactamase class A, A (ESBL), C, MHBII, 35° C. 18 hr, read-out: Minimal Inhibitory Concentration
Procedure, shortened: as §1

[22] = tested on: E. cloacae GC 6991 (AmpC); settings: Enterobacter cloacae, β-lactamase class C, MHBII, 35° C. 18 hr, read-out: Minimal Inhibitory Concentration
Procedure, shortened: as §1

[23] = tested on: E. coli GC 2805 (CcrA); settings: Escherichia coli, 18 h, read-out: Minimal Inhibitory Concentration
Procedure, shortened: as §1

[24] = tested on: K. pn GC 6488 (TEM-1 + SHV-5 + SHV-7); settings: Klebsiella pneumoniae, β-lactamase class A, A (ESBL), MHBII, 35° C. 18 hr, read-out: Minimal Inhibitory Concentration
Procedure, shortened: as §1

[25] = tested on: E. coli GC 2253 (IRT-2); settings: Escherichia coli, 18 h, read-out: Minimal Inhibitory Concentration
Procedure, shortened: as §1

`CO/N=C(\C(=O)N[C@@H]1C(=O)N2C(C(=O)[O-])=C(C[N+]3(C)CCCC3)CS[C@H]12)c1csc(N)n1` [Cefepime] gave an MIC [1] greater than 16 mg/L, an MIC [2] of 0.06 mg/L (≈ 0.125 µM) and an MIC [3] of 8 mg/L (≈ 16.6 µM). For the same molecule, the MIC [4] was greater than 16 mg/L, the MIC [5] was 16 mg/L (≈ 33.3 µM) and the MIC [6] was 1 mg/L (≈ 2.08 µM). The MIC [7] was 0.25 mg/L (≈ 0.52 µM), the MIC [8] was 1 mg/L (≈ 2.08 µM) and the MIC [9] was 16 mg/L (≈ 33.3 µM). The MIC [10] was 2 mg/L (≈ 4.16 µM), the MIC [11] was greater than 16 mg/L and the MIC [12] was greater than 16 mg/L. For the same molecule, the MIC [13] was 0.03 mg/L (≈ 0.0624 µM), the MIC [14] was 4 mg/L (≈ 8.32 µM) and the MIC [15] was 0.03 mg/L (≈ 0.0624 µM). The MIC [16] was 8 mg/L (≈ 16.6 µM), the MIC [17] was 8 mg/L (≈ 16.6 µM) and the MIC ([18]; E. cloacae GC 4142, β-lactamase class C, MHBII, 35° C. 18 hr, read-out: Minimal Inhibitory Concentration) was 8 mg/L (≈ 16.6 µM). The MIC ([18]; Table 3, E. cloacae GC4142 AmpC, read-out: MIC* (minimum inhibitory concentration)) was 16 mg/L (≈ 33.3 µM), the MIC [19] was greater than 16 mg/L and the MIC [20] was 0.12 mg/L (≈ 0.25 µM). It also gave an MIC [21] of 8 mg/L (≈ 16.6 µM), an MIC [22] of 0.5 mg/L (≈ 1.04 µM) and an MIC [23] greater than 16 mg/L. For the same molecule, the MIC [24] was 8 mg/L (≈ 16.6 µM) and the MIC [25] was 0.03 mg/L (≈ 0.0624 µM).
